{"source": "patent US20240325420A1", "about": "“COMPOSITION INCLUDING PAEONIFLORIN FOR PREVENTION OR TREATMENT OF CACHEXIA AND MUSCLE LOSS” (CHUNG ANG UNIVERSITY INDUSTRY ACADEMIC COOPERATION …, priority 2021, published 2024)", "key": {"[1]": {"tested_on": "TNF-α", "test": "Plasma TNF-α by ELISA in mice with cisplatin-induced cachexia", "format": "in vivo", "details": "C57B/6 mice; cisplatin plus paeoniflorin-treated group vs cisplatin-treated group; FIG. 13A", "experimental": "(§1) In addition, cisplatin-treated mice orally administered the same volume of distilled water were designated as the vehicle group. After completion of drug treatment, the mice of each group were euthanized with 10 mg/kg alfaxalone (Jurox, Rutherford, Australia). Blood was collected in test tubes containing EDTA, and centrifuged, and plasma was separated therefrom. Gastrocnemius and quadriceps skeletal muscles were dissected and weighed. The skeletal muscles were rapidly frozen in liquid nitrogen to be used for RT-qPCR, Western blotting, and ELISA.\n(§2) The levels of TNF-α and interleukin (IL)-6 were measured using respective mouse ELISA kits (Invitrogen, Waltham, MA, USA). IL-1β and GDF-15 levels were measured using respective Quantikine ELISA kits (R&D Systems, Minneapolis, MN, USA).\nThe protein concentration of the pro-inflammatory cytokine TNF-α in the plasma of mice was analyzed by ELISA."}, "[2]": {"tested_on": "C57BL/6 mice with Lewis lung carcinoma-induced cachexia", "test": "Body weight and muscle mass in C57BL/6 mice with Lewis lung carcinoma-induced cachexia", "format": "in vivo", "experimental": "As the experimental animals, 4-week-old female C57BL/6 mice and Balb/c mice weighing 18 g to 20 g were purchased from Raon Bio (Yongin, Korea), acclimatized in the laboratory animal facility for one week, and then used in the experiment. During the experiment period, the animals were provided with solid feed and water ad libitum, and the breeding room was maintained at a temperature of 20° C. to 24° C. and a relative humidity of 55% to 65% with a 12-hr light/12-hr dark cycle.\nMice were divided into a control group and a cachexia-induced group, and the cachexia-induced group was subdivided into a tumor cell-injected group, a tumor cell-injected and existing drug (MA, megestrol acetate)-administered group, and tumor cell-injected and paeoniflorin (Pae)-administered groups. Each group consisted of 10 animals.\nEach mouse of the control group was injected subcutaneously with 100 μL of saline solution. For the cachexia-induced groups, Lewis lung carcinoma cells (C57BL/6 mice) or colon-26 carcinoma cells (Balb/c mice) were injected subcutaneously into the flank area of each mouse at a dose of 10^6 cells/100 μL/mouse. After 2 weeks, when a distinct tumor was formed, the tumor cell-injected group was orally administered distilled water, the tumor cell-injected and existing drug-administered group was orally administered megestrol acetate (MA), which is currently most commonly prescribed for cancer cachexia patients in clinical practice, at a dose of 160 mg/kg (=800 mg [daily human dose]/60 kg [average human body weight]×12 [dose equivalent factor based on human:mouse body surface area ratio], once daily for 9 days, and the tumor cell-injected and paeoniflorin-administered groups were orally administered paeoniflorin (prepared in Example 1) once daily for 9 days at doses of 5 (Pae 5 group), 10 (Pae 10 group) and 20 (Pae 20 group) mg/kg, respectively. After completion of 9 days of administration, the muscle strength of the mice was measured using a grip strength test device (Bioseb, USA), and the endurance of the mice was measured using a treadmill device (Columbus Instrument, USA).\nAfter completion of the experiment, the mice were euthanized, blood was collected therefrom, the body weight excluding tumors, and the weights of the hind limb gastrocnemius muscle and quadriceps muscle were measured. GDF-15 in the serum was quantified by ELISA."}, "[3]": {"tested_on": "muscle-specific ubiquitin E3 ligases (MuRF1 and MAFbx)", "test": "Protein levels of MuRF1 and MAFbx in gastrocnemius muscle by Western blotting", "format": "in vivo", "details": "C57BL/6 mice, cisplatin-treated, Pae 10 and Pae 20 vs vehicle", "experimental": "as §1\nProteins were extracted from skeletal muscle using NucleoSpin kits (Macherey-Nagel, Duren, Germany) and quantified using the BCA Protein Assay Kit (Pierce, Rockford, IL, USA). Anti-β-actin antibody was used to quantify protein loading. For myosin protein (MyHC, myosin heavy chain), myogenic factor (MyoD), and NF-κB signaling system (p-IKK, IKK, p-IκB, and IκB), protein levels in the gastrocnemius muscle were measured by Western blotting. Band intensities were quantified using ImageJ software (NIH, Bethesda, MD, USA).\nIn order to measure the mRNA and protein levels of major factors involved in muscle loss, muscle contraction, and muscle differentiation, the mRNA and protein levels in the skeletal muscle tissues from C57BL/6 mice were measured by real-time PCR and Western blotting."}, "[4]": {"tested_on": "NF-κB signaling (p-IKK, p-IκB, IκB, NF-κB p65)", "test": "NF-κB signaling in skeletal muscle by Western blotting", "format": "in vivo", "details": "gastrocnemius muscle, C57BL/6 mice, cisplatin-treated, Pae 10 and Pae 20", "experimental": "Proteins were extracted from skeletal muscle using NucleoSpin kits (Macherey-Nagel, Duren, Germany) and quantified using the BCA Protein Assay Kit (Pierce, Rockford, IL, USA). Anti-β-actin antibody was used to quantify protein loading. For myosin protein (MyHC, myosin heavy chain), myogenic factor (MyoD), and NF-κB signaling system (p-IKK, IKK, p-IκB, and IκB), protein levels in the gastrocnemius muscle were measured by Western blotting. Band intensities were quantified using ImageJ software (NIH, Bethesda, MD, USA). Nuclear and cytoplasmic lysates were prepared from the skeletal muscle using a nuclear extraction kit (Active Motif, Carlsbad, CA, USA). The protein concentration of both lysates was measured using the BCA Protein Assay Kit (Pierce). Anti-NF-κB p65 was used as the primary antibody, and 10 μg of protein per lysate was analyzed by Western blotting. TBP (TATA box-binding protein) and β-actin were as controls for the nuclear and cytosolic lysates, respectively. The target DNA binding activity of NF-κB was measured using the TransAM NF-κB ELISA kit (Active Motif, USA). NF-κB signaling was analyzed by Western blotting of the total extract and the cytosolic and nuclear fraction from the skeletal muscle of C57BL/6 mice."}, "[5]": {"tested_on": "GDF-15", "test": "Plasma GDF-15 by ELISA in mice with cisplatin-induced cachexia", "format": "in vivo", "details": "C57B/6 mice; cisplatin plus paeoniflorin-treated group vs cisplatin-treated group; FIG. 13B", "experimental": "as §1, §2\nThe protein concentration of GDF-15 in the plasma was analyzed by ELISA."}, "[6]": {"tested_on": "C2C12 myoblasts", "test": "Myotube differentiation of C2C12 myoblasts", "format": "cell-based", "experimental": "C2C12 myoblasts were purchased from ATCC (Manassas, Virginia, USA) and cultured using DMEM containing 10% fetal bovine serum. After the cells reached 70% confluence, myotube differentiation was induced while the medium was replaced with DMEM containing 2% horse serum every two days. A negative control group was treated with […] of TNF-α, which inhibits myotube differentiation. While the myoblasts were treated with paeoniflorin at a concentration of 50 to 200 μM along with TNF-α, the degree of myotube differentiation was observed and the length of differentiated myotubes was measured using the Image J program."}}}
{"smiles": "C[C@@]12C[C@@]3(O)O[C@@H](O1)[C@]1(COC(=O)c4ccccc4)[C@H]3C[C@@]12O[C@@H]1O[C@H](CO)[C@@H](O)[C@H](O)[C@H]1O", "note": "[paeoniflorin]", "values": [{"measurement": "plasma concentration of TNF-α", "setting": "[1]", "result": "significantly decreased"}, {"measurement": "body weight", "setting": "[2]; C57BL/6 mice, Lewis lung carcinoma-injected, paeoniflorin orally once daily for 9 days vs Lewis lung carcinoma-injected group, FIG. 14A", "result": "significantly increased"}, {"measurement": "weight of gastrocnemius muscle", "setting": "[2]; C57BL/6 mice, Lewis lung carcinoma-injected, paeoniflorin orally once daily for 9 days vs Lewis lung carcinoma-injected group, FIG. 14B", "result": "significantly increased"}, {"measurement": "weight of quadriceps muscle", "setting": "[2]; C57BL/6 mice, Lewis lung carcinoma-injected, paeoniflorin orally once daily for 9 days vs Lewis lung carcinoma-injected group, FIG. 14C", "result": "significantly increased"}, {"measurement": "effect on body weight and muscle mass compared with megestrol acetate (MA)", "setting": "[2]; Lewis lung carcinoma C57BL/6 mice, paeoniflorin 10 to 20 mg/kg/day vs megestrol acetate 160 mg/kg/day", "result": "better effect"}, {"measurement": "MuRF1 protein level", "setting": "[3]; FIG. 6A", "result": "decreased"}, {"measurement": "MAFbx protein level", "setting": "[3]; FIG. 6B", "result": "decreased"}, {"measurement": "level of p-IKK (phospho-IKK)", "setting": "[4]; FIG. 10A", "result": "reduced again"}, {"measurement": "level of p-IκB (phospho-IκB)", "setting": "[4]; FIG. 10B", "result": "reduced again"}, {"measurement": "level of IκB", "setting": "[4]; FIG. 11", "result": "increased"}, {"measurement": "cytosolic level of NF-κB", "setting": "[4]; FIG. 12A", "result": "increased"}, {"measurement": "nuclear level of NF-κB", "setting": "[4]; FIG. 12B", "result": "decreased"}, {"measurement": "plasma concentration of GDF-15", "setting": "[5]", "result": "significantly decreased"}, {"measurement": "myotube differentiation", "setting": "[6]; paeoniflorin 50 to 200 μM along with TNF-α, FIG. 19", "result": "promoted"}, {"measurement": "myotube length", "setting": "[6]; paeoniflorin-treated groups vs negative control group (TNF-α+Pae 0 μM), FIG. 20", "result": "significantly increased"}]}
